Laboratory results: publication PMC9121888 (Pharmacology Research & Perspectives, 2022)
Read-outs that look alike come from different tables or passages of the source.

Columns and labels:
[1] = Study 1 plasma pharmacokinetics of verinurad, allopurinol and oxypurinol; format: in vivo, human; conditions: for Tmax: median (range)
Experimental: Cohort 1 was randomized, double‐blind, and placebo‐controlled and consisted of 12 healthy Asian participants, of whom <50% were Chinese. Cohort 2 was open‐label, consisting of 9 healthy Chinese participants.
In both studies, participants received verinurad capsules with an extended‐release profile. On the days of pharmacokinetic sampling, treatment was given in fasting state.
Verinurad plasma samples were analyzed using similar methodologies as described by Shen et al.[13] with lower and upper limits of quantification of 0.100 ng/mL and 40.0 ng/mL, respectively.

[2] = test system: serum uric acid (sUA) and urinary uric acid (uUA); conditions: for sUA mean percentage change from screening: after 300 mg allopurinol QD for 7 days, day 1 (pre-dose); for sUA level at baseline (day –1): following 7 days of 300 mg allopurinol run-in
[3] = human, plasma, oral, healthy Asian participants, 24 mg verinurad + 300 mg allopurinol QD, Day 1, geometric mean (gCV%), read-out: Cmax
[4] = human, plasma, oral, healthy Asian participants, 24 mg verinurad + 300 mg allopurinol QD, Day 1, read-out: tmax
[5] = human, plasma, oral, healthy Asian participants, 24 mg verinurad + 300 mg allopurinol QD, Day 7, geometric mean (gCV%), read-out: AUCτ
[6] = human, plasma, oral, healthy Asian participants, 24 mg verinurad + 300 mg allopurinol QD, Day 7, geometric mean (gCV%), read-out: Cmax
[7] = human, plasma, oral, healthy Chinese participants, 12 mg verinurad + 300 mg allopurinol day 1 and QD days 3-9, Day 9, geometric mean (gCV%), read-out: AUCτ
[8] = human, plasma, oral, healthy Chinese participants, 12 mg verinurad + 300 mg allopurinol day 1 and QD days 3-9, Day 9, read-out: tmax
[9] = human, plasma, oral, healthy Chinese participants, 12 mg verinurad + 300 mg allopurinol, Day 1, geometric mean (gCV%), read-out: AUC
[10] = human, plasma, oral, healthy Chinese participants, 12 mg verinurad + 300 mg allopurinol, Day 1, geometric mean (gCV%), read-out: AUCτ
[11] = human, plasma, oral, healthy Chinese participants, 12 mg verinurad + 300 mg allopurinol, Day 1, geometric mean (gCV%), read-out: Cmax
[12] = human, plasma, oral, healthy Chinese participants, 12 mg verinurad + 300 mg allopurinol, Day 1, read-out: tmax

SMILES	Cmax [1, 3] [ng/mL]	Tmax [1, 4] [h]	AUC [1, 5] [ng·h/mL]	Cmax [1, 6] [ng/mL]	AUC [1, 7] [ng·h/mL]	Tmax [1, 8] [h]	AUC [1, 9] [ng·h/mL]	AUC [1, 10] [ng·h/mL]	Cmax [1, 11] [ng/mL]	Tmax [1, 12] [h]	other results
O=c1[nH]c(=O)c2c[nH]nc2[nH]1 [Oxypurinol, oxypurinol]	11100	3	120000	7700	139000	3.1	342000	201000	11800	2	AUCτ ([1]; healthy Asian participants, 24 mg verinurad + 300 mg allopurinol QD, Day 1, geometric mean (gCV%)): 180700 (18.3) ng·h/mL; Tmax ([1]; healthy Asian participants, 24 mg verinurad + 300 mg allopurinol QD, Day 7): 4.00 (3.00–6.00) h; Cmax ([1]; healthy Chinese participants, 12 mg verinurad + 300 mg allopurinol day 1 and QD days 3-9, Day 9, geometric mean (gCV%)): 8520 (10.5) ng/mL
Oc1ncnc2[nH]ncc12 [allopurinol, reference compound]	1770	2	6020	1780	5740	2.55	6210	6210	1940	1.52	AUC ([1]; human, plasma, oral, healthy Asian participants, 24 mg verinurad + 300 mg allopurinol QD, Day 1, geometric mean (gCV%), read-out: AUC): 6220 ng·h/mL; AUC ([1]; human, plasma, oral, healthy Asian participants, 24 mg verinurad + 300 mg allopurinol QD, Day 1, geometric mean (gCV%), read-out: AUCτ): 6230 ng·h/mL; Tmax ([1]; human, plasma, oral, healthy Asian participants, 24 mg verinurad + 300 mg allopurinol QD, Day 7, read-out: tmax): 3 h; Cmax ([1]; human, plasma, oral, healthy Chinese participants, 12 mg verinurad + 300 mg allopurinol day 1 and QD days 3-9, Day 9, geometric mean (gCV%), read-out: Cmax): 1570 ng/mL; sUA mean percentage change from screening ([2]; healthy Asian participants): −26.1%; sUA level at baseline (day –1) ([2]; healthy Asian participants, screening 6.31 mg/dL): 4.77 mg/dL; sUA mean percentage change from screening ([2]; healthy Chinese participants): −23.5%; sUA level at baseline (day –1) ([2]; healthy Chinese participants, screening 5.64 mg/dL): 4.49 mg/dL
